According to patent publication US20130245110A1, “USE FOR CANNABINOIDS” (priority 2008, published 2013):
Where “and” joins values, the source holds several entries; their conditions need not be identical. Identical values can stand only once.

Legend:
[1] = system: dietary induced obese (DIO) mouse model; assay: Growth (body weight, nose-anus length); type: in vivo; conditions: DIO mice; chronic dosing
Method: The following are a battery of tests used to elicit the effects of drugs on diseases including type I or II diabetes, obesity, dyslipidaemia, related metabolic disorders and cardiovascular disease. • a) Body weight: Bodyweights of all mice were measured twice weekly during the study. • b) Food intake: Food intake was measured by weight difference taking account of food wastage in the bottom of the cage. • c) Measurement of water consumption: Water intake was calculated daily for each animal, during the treatment period, by weight difference of the water bottle. • d) Oral Glucose Tolerance Test (OGTT): Glucose was dissolved in water (3 g/10 ml) and given to the mice orally at a rate of 3 g/kg. […] Samples were then analysed automatically using a SpectraMax-250 and SoftMax Pro software. • f) Plasma preparation: Blood was collected for the measurement of i) plasma insulin, ii) cholesterol, iii) free fatty acids or iv) triglyceride concentration. • i. Plasma insulin analysis: Plasma insulin was measured using 5 μl of plasma, compared with a mouse insulin standard using a 96-well micro-assay plate • ii. […] The samples were mixed and incubated for 5 minutes before reading at dual wavelengths of 500 and 660 nm. • iii. Plasma free fatty acids: 5 μl samples of plasma were measured into a 96-well assay plate, to which was added 0.2 ml of reagents NEFA C • iv. […]

C57B1/6 ob/ob mouse = assay: Liver triglyceride; type: in vivo; conditions: ob/ob mice, at termination, individual values
Method: Blood samples were also taken at −30 minutes for insulin analysis. • e) Blood Glucose analysis: Duplicate 20 μl samples of blood of were taken for each individual sample and placed in a 96-well assay plate. To each well was added 180 μl aliquots of glucose oxidase reagent. Samples were mixed and then left for approximately 30 minutes. Samples were then analysed automatically using a SpectraMax-250 and SoftMax Pro software. • f) Plasma preparation: Blood was collected for the measurement of i) plasma insulin, ii) cholesterol, iii) free fatty acids or iv) triglyceride concentration. • i. Plasma insulin analysis: Plasma insulin was measured using 5 μl of plasma, compared with a mouse insulin standard using a 96-well micro-assay plate • ii. Plasma cholesterol analysis: To each sample was added 200 μl of infinity cholesterol liquid stable reagent. The samples were mixed and incubated for 5 minutes before reading at dual wavelengths of 500 and 660 nm. • iii. Plasma free fatty acids: 5 μl samples of plasma were measured into a 96-well assay plate, to which was added 0.2 ml of reagents NEFA C • iv. […] Dedicated software was using to quantify amounts of bone and fat. The mice were lightly anaesthetised, sufficient to keep them quiescent during this non-invasive technique. • h) Energy expenditure measurements: Energy expenditure was measured by open circuit indirect calorimetry with mice in their home cages. […] Plasma leptin was measured in fed mice using the Crystal Chem Elisa assay. • j) Plasma adiponectin: Adiponectin exerts some of its weight reduction effects via the brain. […] Plasma adiponectin was measured in overnight fasted mice using the 96-well B-Bridge Elisa assay. • k) Plasma HDL-cholesterol: Plasma HDL-cholesterol was measured in fed mice using the kit from Trinity Biotech. • l) 24 h blood glucose profile: This was determined in order to ensure that changes in the diurnal control of blood glucose were detected. Thus blood samples were obtained at three hourly intervals throughout a continuous 24 h period. • m) Plasma haemoglobin AIC: Samples (10 μl) were analysed using the AIC. […]

C57B1/Ks db/db mouse = assay: Plasma insulin concentration; type: in vivo; conditions: db/db mice
Method: Inflammation is also a feature of type II diabetic animals and man. […] However, as a result of the C57B1/Ks genetic background rather than the C57B1/6, the mice show loss of pancreatic function from around 6/7 weeks of age and by 10 weeks show frank diabetes.
The mice were given chow diet (Bantin and Kingman, no 1 diet) and water ad lib. The mice were kept under controlled lighting conditions (lights on 08.00 h, 12 h light/12 h dark) and at a room temperature of 21°±1° C.
• Daily: Food and water intake • Twice weekly: Body weight and glucose • Day 1: Weigh mice, dose compounds, provide measured amount of food, provide measured amount of water • Days 2, 5 and 8: Fed blood glucose concentration • Day 9: Oral glucose tolerance • Days 12 and 16: Fed blood glucose concentration • Day 19: 24 hr glycaemic assay • Days 22, 26 and 29: Fed blood glucose concentration • Day 33: 24 hr glycaemic assay • Day 38: Fed blood glucose concentration • Day 39: Body composition by Dexascan in anaesthetised mice • Day 41: Termination. Take blood samples for glucose, free fatty acids, triglycerides, cholesterol, insulin and HbA

aorta = assay: Chronic treatment of rats, vascular responses in isolated arteries; type: in vivo, rat; conditions: aorta of rats treated for 2 weeks

CCCc1cc(O)c2c(c1)OC(C)(C)[C@@H]1CCC(C)=C[C@@H]21 [THCV, tetrahydrocannabivarin]
Effect on growth [1]: without any effect on growth | Liver triglycerides concentration (C57B1/6 ob/ob mouse; 0.3 mg·kg−1 daily oral gavage (combination: both 0.3)): 17.16 and 11.16 and 14.94 and 15.48 and 9.10 and 16.72 and 9.33 and 14.97 | Liver triglycerides concentration (C57B1/6 ob/ob mouse; 0.3 mg·kg−1 daily oral gavage (combination: both 0.3), listed as pure THCV): increased | Liver triglycerides concentration (C57B1/6 ob/ob mouse; 3.0 mg·kg−1 daily oral gavage (combination: both 3.0)): 8.70 and 15.20 and 10.77 and 9.78 and 12.06 and 13.92 and 18.27 and 14.09

C=C(C)[C@@H]1CCC(C)=C[C@H]1c1c(O)cc(CCCCC)cc1O [CBD, cannabidiol]
Plasma insulin during the 24 h glucose profiles (C57B1/Ks db/db mouse): no consistent effect was seen | Maximal response to methoxamine (aorta): 1.63±0.21 g increase tension | Potency of acetylcholine (pEC50) (aorta): 5.37±0.40
